# Reference: article PMC12786457, “Studies on the Complexation of Platinum(II) by Some 4-Nitroisothiazoles and the Cytotoxic Activity of the Resulting Complexes” (Molecules, 2025)
# Entries after “also recorded” stand apart in the source; their conditions may differ. Like-named read-outs stand apart in the source and are kept apart here.
# Key:
# [1] = cited from earlier work
# [2] = test system: MCF-7 (breast adenocarcinoma); assay: SRB (sulforhodamine B) viability assay, MCF-7; assay type: cell-based, human; conditions: SRB assay
# Procedure: (§1) The cytotoxicity of the complexes C1–C5 was estimated by examining cell viability using the sulforhodamine B assay. […] However, due to the very poor solubility of the most polar complex C5 in acetone, its initial solution had to be prepared in polar N,N-dimethylacetamide (DMA) (see Section 3.7). Cisplatin was used as the reference drug. The results are presented as IC50 (50% inhibitory concentration), i.e., concentrations that reduce cell survival by 50%. The test was conducted on three cancer cell lines and one normal healthy cell line, namely, breast adenocarcinoma (MCF-7), ovarian adenocarcinoma (ES-2), lung adenocarcinoma (A549), and murine embryonic fibroblast (BALB/3T3).
# (§2) Three solid tumor cell lines were used in this study: MCF-7 (breast adenocarcinoma), ES-2 (ovarian adenocarcinoma), and A549 (lung adenocarcinoma). The BALB/3T3 (mouse embryonic fibroblast) cell line was used as a comparative nonpathological tissue. All cell lines were purchased from the American Type Culture Collection (ATCC, Rockville, MD, USA). The preparation of cell cultures for cytotoxicity experiments is described in detail in the following article.
# (§3) The initial solutions for subsequent dilutions in biological medium were prepared in a similar manner as described previously. […] The complex C5 was dissolved in the dimethylacetamide (DMA). All the initial solutions were prepared ex tempore and then were added to the culture medium 1:9 (v/v) to obtain a stock solution of 1 mg/mL.
# (§4) The test was prepared and performed in the same manner as detailed in the following cited works.
# [3] = test system: ES-2 (ovarian adenocarcinoma); assay: SRB (sulforhodamine B) viability assay, ES-2; assay type: cell-based, human
# Procedure: as §1, §2, §3, §4
# [4] = test system: A549 (lung adenocarcinoma); assay: SRB (sulforhodamine B) viability assay, A549; assay type: cell-based, human; conditions: SRB assay
# Procedure: as §1, §2, §3, §4
# [5] = test system: BALB/3T3 (mouse embryonic fibroblast); assay: SRB (sulforhodamine B) viability assay, normal cells BALB/3T3; assay type: cell-based; conditions: normoxia, read-out: IC50 ± SD, Normal Cells BALB/3T3, Normoxia
# Procedure: as §1, §2, §3, §4
# [6] = TLC Rf as a measure of relative lipophilicity; assay type: physicochemical; conditions: silica gel TLC Al foils
# Procedure: Measurement of the melting points (m.p.) of the obtained compounds was performed with the Büchi M560 melting point device (BÜCHI Labortechnik AG, CH-9230 Flawil/SG, Flawil, Switzerland) and was uncorrected. The ESI-MS (electrospray ionization mass spectroscopy) spectra were recorded with the compactTM Bruker Daltonics Electrospray Ionization Quadrupole Time-of-Flight (ESI-Q-TOF) spectrometer (Bruker Daltonics GmbH, Bremen, Germany). The ESI-MS measurements for new compounds were performed in both positive- and negative-ion mode in LC-MS-grade using LC-MS grade methanol as a solvent. ESI-MS spectral analysis and the simulation of the theoretical monoisotopic mass of detected ions were performed using Bruker Compass Data Analysis 4.2 software (Bruker Daltonics GmbH, Bremen, Germany). All ^1H and ^13C-NMR spectra were recorded on the following instruments: Bruker NMR AVANCE III™ 600 MHz spectrometer with Ascend™ technology magnet with a quadruple resonance NMR ‘inverse’ cryoprobe (Bruker Corporation, Billerica, MA, USA) and/or Bruker ARX-300 (300 MHz) spectrometer (Bruker Analytische Messtechnik GmbH, Rheinstetten, Germany). The NMR measurements of samples of the compounds were carried out at room temperature (20–25 °C) using 5 mm tubes in deuterated acetone-d6. NMR chemical shifts were referenced to the solvent signal, i.e., for ^1H-NMR: δ (quintet of residual acetone-d6) = 2.05 ppm and for ^13C-NMR: δ (septet of acetone-d6) = 29.84 ppm. The Nicolet iS50 FT-IR spectrophotometer (Thermo Fisher Scientific Inc., Waltham, MA, USA) was used to record the Attenuated Total Reflectance IR (ATR-FT-IR) spectra (at MIR range 4000–450 cm^−1). Recording of spectra was performed on the diamond crystal surface (32 scans, resolution: 1 cm^−1, measurement temperature: 20–25 °C) with ATR intensity correction in the Laboratory of Elemental Analysis and Structural Research, Faculty of Pharmacy, Wroclaw Medical University. A Fourier transform, Bruker VERTEX 70V vacuum spectrometer equipped with an air-cooled DTGS detector was used to obtain the Far-IR (far-infrared) spectra (below 500 cm^−1) of the Pt(II) complexes. The spectra measurements were conducted with the ATR accessory, such as a diamond ATR crystal, in the resolution of 1 cm^−1 with 64 scans in the Laboratory of Vibrational Spectroscopy of the Faculty of Chemistry at Wrocław University of Science and Technology. No ATR intensity correction was applied to Far-IR spectra. Omnic 9.3.30 and Omnic Specta 2.0 software (Thermo Fisher Scientific Inc.) was used to process and analyze spectra. A double beam U-2800 Spectrophotometer (Hitachi—Science & Technology, Tokyo, Japan) was used to record UV spectra of Pt-complexes (C1 and C2) and reaction rate measurements of the GSH complexes. Dioxane solutions of complexes were used in the following concentrations: c = 2 × 10^−5 M and 3 × 10^−5 M, respectively, for C1 and C2. Measurement of UV spectra was conducted in quartz cuvettes (path length = 10.0 mm) in the range 190–400 nm (sampling interval 1 nm, scan speed 200 nm/min). All UV experiments were performed in the Laboratory of Elemental Analysis and Structural Research, Faculty of Pharmacy, Wroclaw Medical University. Baselines were corrected with pure dioxane as the reference solvent. Thin-layer chromatography (TLC) was used to monitor the progress of the reaction course and determine the purity of the synthesized compounds. Silica gel on TLC Al foils with fluorescent indicator 254 nm (Sigma-Aldrich, Merck Group, Darmstadt, Germany) was used as the stationary phase and chloroform–acetone mixtures (volume ratios 9:1, 7:3, and 1:1) as the eluent. Detection of Pt(II) compounds in the chromatograms was performed using a 0.5% acetone solution of rubeanic acid (dithiooxamide), and organic impurities were detected by observing the plates under UV light at 250 nm. […]
# [7] = Solubility in solvents (qualitative); assay type: physicochemical
# [8] = TLC Rf as a measure of relative lipophilicity; assay type: physicochemical; conditions: silica gel TLC Al foils; remark: listed apart in the source
# [9] = hypoxia, read-out: IC50 ± SD, MCF-7 (Breast), Hypoxia
# [10] = normoxia, read-out: IC50 ± SD, MCF-7 (Breast), Normoxia
# [11] = hypoxia, read-out: IC50 ± SD, ES-2 (Ovarian), Hypoxia
# [12] = normoxia, read-out: IC50 ± SD, ES-2 (Ovarian), Normoxia
# [13] = normoxia, read-out: IC50 ± SD, A549 (Lung), Normoxia
# [14] = earlier work of the authors, same methodology
molecule,measurement,setting,value
N.N.O=C([O-])C1(C(=O)[O-])CCC1.[Pt+2] [Carboplatin],"Half-time, t1/2 of reaction with GSH",[1]; literature value,16.7–32.7 h [35]
"N.N.[Cl][Pt][Cl] [Cisplatin, cis-diamminodichloroplatinum, reference compound]",IC50,[2]; [9],9.74 ± 5.84 µM
same,IC50,[2]; [10],14.4 ± 1.4 µM
same,IC50,[3]; [11],6.28 ± 2.19 µM
same,IC50,[3]; [12],9.85 ± 4.68 µM
same,IC50,"[4]; hypoxia, read-out: IC50 ± SD, A549 (Lung), Hypoxia",14.8 ± 1.93 µM
same,IC50,[4]; [13],12.5 ± 1.64 µM
same,IC50,[5],8.1 ± 5.61 µM
O=C(O)C(=O)O.[NH-][C@@H]1CCCC[C@H]1[NH-].[Pt+2] [Oxaliplatin],"Half-time, t1/2 of reaction with GSH","[1]; literature value, similar conditions",44 min [35]
N.N.[Cl][Pt+2][Cl] [Transplatin],"Half-time, t1/2 of reaction with GSH",[1]; literature value,4 min [36]
Cc1noc(C)c1[N+](=O)[O-].Cc1noc(C)c1[N+](=O)[O-].[Cl][Pt@SP1][Cl] [cis-Pt(NO2Isoxazol)2Cl2],"Half-time, t1/2 of reaction with GSH",[1]; [14],42 min [18]
Cn1cc([N+](=O)[O-])cn1.Cn1cc([N+](=O)[O-])cn1.[Cl][Pt@SP1][Cl] [cis-Pt(NO2Pyraz)2Cl2],"Half-time, t1/2 of reaction with GSH",[1]; [14],83 min [17]
"Cc1noc(C)c1[N+](=O)[O-].Cc1noc(C)c1[N+](=O)[O-].[Cl][Pt][Cl] [trans-Pt(NO2Isoxazol)2Cl2, trans-dichlorobis(3,5-dimethyl-4-nitro-isoxazole)platinum(II)]","Half-time, t1/2 of reaction with GSH",[1]; [14],18 min [18]
"Cn1cc([N+](=O)[O-])cn1.Cn1cc([N+](=O)[O-])cn1.[Cl][Pt][Cl] [trans-Pt(NO2Pyraz)2Cl2, trans-[PtCl2 (1-methyl-4-nitropyrazole)2]]","Half-time, t1/2 of reaction with GSH",[1]; [14],13 min [17]
cis-Dichlorobis(3-methyl-4-nitroisothiazole-5-carboxamide)platinum(II) [C5],IC50,[2]; [9],67.3 ± 28.3 µM
same,IC50,[2]; [10],57.6 ± 7.69 µM
same,IC50,[3]; [11],50.1 ± 7.97 µM
same,IC50,[3]; [12],62.5 ± 22.7 µM
same,"IC50 ± SD, A549 (Lung), Hypoxia",[4]; hypoxia,inactive
same,IC50,[4]; [13],66.2 ± 1.15 µM
same,IC50,[5],64.2 ± 15.8 µM
same,"Rf, Eluent: Chlorofom:Acetone Ratio 1:1 Vol.",[6],0.655
same,"Rf, Eluent: Chlorofom:Acetone Ratio 9:1 Vol.",[6],0.005
same,solubility in acetone,[7]; acetone,very poorly soluble; also recorded: weakly soluble
same,solubility in acetonitrile,"[7]; acetonitrile, relative to acetone",slightly better
same,solubility in chloroform,[7]; chloroform,practically insoluble
same,"Rf, Eluent: Chlorofom:Acetone Ratio 9:7 Vol.",[8],0.215
